This data set in a line: Solubility of phenylephrine base in water and methanol (Table 2). It is filed as physicochemical. The protocol: One skilled in the art can improvise modifications to the above procedure in several aspects. For example it is possible to use the racemic phenylephrine hydrochloride salt, suspend it in methanol and add the requisite amount of alkali to liberate the free base before adding the R-naproxen to it. Phenylephrine base is not soluble in water but may be rendered soluble at a temperature above 80° and higher dilution but at lower dilution in hot methanol. Suitable combination of solvent, dilution and temperature may be chosen depending on the size of input. (See Table 2 below). R-naproxen may be added as a solution in methanol or as a solid to keep a low solvent ratio enabling better recovery of the salt.

This passage reports Solubility and Solubility in water results from patent publication US8455692B2, “Process for resolution of 1-(3-hydroxyphenyl)-2-methylamino ethanol” (Divi's Laboratories, Ltd., priority 2010, dated 2013).

SMILES strings stand for the structures.

In the case of `CNCC(O)c1cccc(O)c1` (racemic) [Phenylephrine base, 1-(3-hydroxyphenyl)-2-methylamino ethanol], the Solubility result is recorded as “Not soluble” (Methanol, 25-30° C., 1 g in 10 mL); “Not soluble” (Methanol, 25-30° C., 1 g in 30 mL); “Soluble” (Methanol, 25-30° C., 1 g in 100 mL); “Not soluble” (Methanol, 60-80° C., 1 g in 10 mL); “Soluble” (Methanol, 60-80° C., 1 g in 30 mL); “Soluble” (Methanol, 60-80° C., 1 g in 100 mL). The Solubility result (Water, 25-30° C., 1 g in 10 mL) is “Not soluble”; the Solubility result (Water, 25-30° C., 1 g in 30 mL) is given as “Not soluble”; the Solubility result (Water, 25-30° C., 1 g in 100 mL) is “Not soluble”; the Solubility entry (Water, 60-80° C., 1 g in 10 mL) is listed as “Not soluble”; the Solubility entry (Water, 60-80° C., 1 g in 30 mL) was “Not soluble”; the Solubility result (Water, 60-80° C., 1 g in 100 mL) is reported as “Soluble”. Moreover, the Solubility entry is, setting by setting: (Water, 100° C., 1 g in 10 mL) “Not soluble”; (Water, 100° C., 1 g in 30 mL) “Soluble”; (Water, 100° C., 1 g in 100 mL) “Soluble”. In addition, the Solubility in water result (water) was “not soluble”.
